# Source: article PMC11125953 (Viruses, 2024)
# Structures can show the parent of a compound that is named as a salt. Where two headings read alike, the source gives them in different places.
# Legend:
# [1] = tested on: EHV-4 405/76 reference strain; test: RTCA; format: cell-based, Equid herpesvirus 4; conditions: for AUCn: area under normalized Cell Index curves, 0-120 hpi, EHV-4-infected E. Derm cells
# [2] = in vitro; conditions: horse
# [3] = tested on: EHV-4 405/76 reference strain; test: microbe, parasite or virus in culture
# [4] = in vitro; conditions: horse; remark: listed apart in the source
# [5] = tested on: EHV-4 405/76 reference strain; test: microbe, parasite or virus in culture; remark: listed apart in the source
# [6] = tested on: EHV-4 405/76 reference strain; conditions: ratio of CC50 to EC50 obtained by qPCR
# [7] = tested on: EHV-4 405/76 reference strain; conditions: ratio of CC50 to EC50 obtained by RTCA
# [8] = Equid alphaherpesvirus 4, 120 h, read-out: %AUCn
Structure (SMILES),AUCn ([1]; 0.4 µM),AUCn ([1]; 2 µM),AUCn ([1]; 10 µM),AUCn ([1]; 50 µM),also measured
CC(C)OC(=O)OCOP(=O)(CO[C@H](C)Cn1cnc2c(N)ncnc21)OCOC(=O)OC(C)C [Tenofovir disoproxil],34.89,43.49,93.87,52.88,
Cc1ccc2c(=O)c3cccc(CC(=O)O)c3oc2c1C [DMXAA],36.50,37.99,41.23,60.10,
Nc1nc2nc[nH]c2c(=S)[nH]1 [6-thioguanine],37.89,38.05,34.04,29.32,
CC(C)OC(=O)[C@H](C)N[P@](=O)(OC[C@H]1O[C@@H](n2ccc(=O)[nH]c2=O)[C@](C)(F)[C@@H]1O)Oc1ccccc1 [Sofosbuvir],35.31,33.28,34.01,35.76,
[H]/N=C(\N/C(=N/[H])Nc1ccc(Cl)cc1)NC(C)C [Proguanil hydrochloride],34.82,36.10,38.33,59.56,
Nc1nc(NC2CC2)c2ncn([C@H]3C=C[C@@H](CO)C3)c2n1 [Abacavir sulfate],38.16,32.21,31.76,32.99,
Cc1cn([C@@H]2C[C@@H](O)[C@H](CO)O2)c(=O)[nH]c1=O [Telbivudine],30.51,35.43,31.31,39.04,
Cc1cn([C@H]2C=C[C@@H](CO)O2)c(=O)[nH]c1=O [Stavudine],37.85,32.94,32.23,30.20,
Nc1ccn([C@@H]2O[C@H](CO)[C@@H](O)[C@@H]2O)c(=O)n1 [Cytarabine],28.59,32.46,91.79,91.89,
CC(C)n1c(/C=C/C(O)CC(O)CC(=O)O)c(-c2ccc(F)cc2)c2ccccc21 (stereo not drawn) [Fluvastatin],33.08,16.45,11.66,13.86,
O=c1[nH]c(=O)n([C@H]2C[C@H](O)[C@@H](CO)O2)cc1I [Idoxuridine],36.8,30.6,63.0,143.7,"CC50 [2]: > 50 µM; EC50 ([3]; Equid alphaherpesvirus 4, read-out: qPCR EC50 (µM ± S.D)): 7.49 ± 1 µM; EC50 ([3]; Equid alphaherpesvirus 4, read-out: qPCR EC50 (µg/mL ± S.D)): 2.65 ± 0.35 µg/mL; CC50 [4]: > 50 µM; EC50 ([5]; Equid alphaherpesvirus 4, read-out: RTCA EC50 (µM ± S.D)): 33.8 ± 15.8 µM; EC50 ([5]; Equid alphaherpesvirus 4, read-out: RTCA EC50 (µg/mL ± S.D)): 11.9 ± 5.61 µg/mL; SI (CC50 CellTiter-Glo/EC50 qPCR) [6]: >6.68; Si (CC50/EC50, RTCA) [7]: >1.48"
COc1nc(N)nc2c1ncn2[C@@H]1O[C@H](CO)[C@@H](O)[C@@H]1O [Nelarabine],33.26,32.33,30.63,40.34,
O=c1[nH]cnc2c1ncn2[C@H]1CC[C@@H](CO)O1 [Didanosine],37.77,36.23,29.27,38.91,
O=c1c(-c2ccc(O)cc2)coc2cc(O)cc(O)c12 [Genistein],11.7,12.8,13.3,11.8,"activation at 0.4 µM [1, 8]: -17.5%; activation at 2 µM [1, 8]: -9.65%; activation at 10 µM [1, 8]: -6.34%; activation at 50 µM [1, 8]: -16.7%"
CC(C)Nc1nc2cc(Cl)c(Cl)cc2n1[C@H]1O[C@@H](CO)[C@H](O)[C@@H]1O [Maribavir],33.80,34.21,32.99,45.42,
"NCCCC(N)(C(=O)O)C(F)F (stereo not drawn) [Eflornithin (dfmo), Eflornithin]",44.63,32.10,30.27,32.46,
Sc1ncnc2nc[nH]c12 [6-mercaptopurine],39.53,37.02,28.97,27.72,
NC(=O)c1nc(F)c[nH]c1=O [Favipiravir],30.35,41.18,37.23,74.44,
